Results from US8754073B2, “Substituted piperazino-dihydrothienopyrimidines” (Boehringer Ingelheim International GmbH, priority 2007, dated 2014).

Biological target: PDE4B (Homo sapiens, UniProt Q07343)
Test: Scintillation Proximity Assay (SPA) of PDE4B enzyme activity ([H3]-cAMP cleavage)
Type: biochemical
Settings: test substance 1 μM; one-hour incubation with [H3]-cAMP at 30° C.
Outline: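 Percent inhibition at 1 μM compound, measured against an uninhibited reaction. PDE4B hydrolysed tritiated cAMP for one hour at 30 °C, then scintillator beads were added to capture [H3]-5′-AMP. Light events were counted after 45 min bead settling.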

Chain of PDE4B (Q07343 whole entry, species assumed): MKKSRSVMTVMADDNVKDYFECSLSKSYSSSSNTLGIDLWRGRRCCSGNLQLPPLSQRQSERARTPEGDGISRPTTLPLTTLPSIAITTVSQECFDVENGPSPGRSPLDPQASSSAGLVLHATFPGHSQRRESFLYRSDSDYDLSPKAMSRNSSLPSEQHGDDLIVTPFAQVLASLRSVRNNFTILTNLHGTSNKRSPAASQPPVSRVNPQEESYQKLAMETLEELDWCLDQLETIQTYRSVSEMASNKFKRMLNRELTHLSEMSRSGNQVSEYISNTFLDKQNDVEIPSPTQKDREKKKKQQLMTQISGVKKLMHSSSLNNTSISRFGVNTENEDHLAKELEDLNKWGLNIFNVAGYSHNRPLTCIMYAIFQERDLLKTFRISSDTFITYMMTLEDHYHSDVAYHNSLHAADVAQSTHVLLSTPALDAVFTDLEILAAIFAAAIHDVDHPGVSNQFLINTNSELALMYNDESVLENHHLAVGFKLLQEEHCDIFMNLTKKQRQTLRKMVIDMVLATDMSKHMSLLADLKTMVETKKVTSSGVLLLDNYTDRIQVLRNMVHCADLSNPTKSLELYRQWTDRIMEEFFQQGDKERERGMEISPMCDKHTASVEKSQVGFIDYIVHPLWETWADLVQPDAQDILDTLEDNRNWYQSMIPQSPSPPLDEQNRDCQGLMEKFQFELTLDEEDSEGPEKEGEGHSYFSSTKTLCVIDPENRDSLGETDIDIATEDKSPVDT

Row | Compound | inhibition at 1 µM [%]
1 | CN1C[C@@H](Nc2nc(N3CCC(c4nc(-c5ccncc5)no4)CC3)nc3c2[S+]([O-])CC3)CCC1=O (stereo partly drawn) [Example 188] | 97
2 | CC(C)c1noc(C2CCN(c3nc4c(c(N[C@H]5CCC(=O)N(C)C5)n3)[S+]([O-])CC4)CC2)n1 (stereo partly drawn) [Example 189] | 97
3 | CN1C[C@@H](Nc2nc(N3CCC(c4cc(-c5ccco5)n[nH]4)CC3)nc3c2[S+]([O-])CC3)CCC1=O (stereo partly drawn) [Example 190] | 97
4 | [O-][S+]1CCc2nc(N3CCC(c4nc5ccc(Cl)cc5[nH]4)CC3)nc(NC3CCOCC3)c21 (stereo not drawn) [Example 191] | 96
5 | Cn1cc(C2CCN(c3nc4c(c(NC5CCOCC5)n3)[S+]([O-])CC4)CC2)c2cc(C(C)(C)C)ccc21 (stereo not drawn) [Example 192, {2-[4-(5-tert-butyl-1-methyl-1H-indol-3-yl)-piperidin-1-yl]-5-oxo-6,7-dihydro-5H-5λ^4-thieno[3,2-d]pyrimidin-4-yl}-(tetrahydropyran-4-yl)-amine] | 95
6 | Cn1cc(C2CCN(c3nc4c(c(NC5CCOCC5)n3)[S+]([O-])CC4)CC2)c2ccccc21 (stereo not drawn) [Example 193] | 96
7 | CN1C[C@@H](Nc2nc(N3CCC(c4nc5ccc(Cl)cc5o4)CC3)nc3c2[S+]([O-])CC3)CCC1=O (stereo partly drawn) [Example 194, 5-{2-[4-(6-Chlorbenzoxazol-2-yl)-piperidin-1-yl]-5-oxo-6,7-dihydro-5H-5λ^4-thieno[3,2-d]pyrimidin-4-ylamino}-1-methylpiperidin-2-one] | 97
8 | CN1C[C@@H](Nc2nc(N3CCC(c4nc5cc(F)ccc5o4)CC3)nc3c2[S+]([O-])CC3)CCC1=O (stereo partly drawn) [Example 195, 5-{2-[4-(5-fluorobenzoxazol-2-yl)-piperidin-1-yl]-5-oxo-6,7-dihydro-5H-5λ^4-thieno[3,2-d]pyrimidin-4-ylamino}-1-methylpiperidin-2-one] | 96
9 | CN1C[C@@H](Nc2nc(N3CCC(c4cc[n+]([O-])cc4)CC3)nc3c2[S+]([O-])CC3)CCC1=O (stereo partly drawn) [Example 196] | 94
10 | CN1C[C@@H](Nc2nc(N3CCC(C)(c4nc5cc(F)ccc5o4)CC3)nc3c2[S+]([O-])CC3)CCC1=O (stereo partly drawn) [Example 197, 5-{2-[4-(5-fluorobenzoxazol-2-yl)-4-methylpiperidin-1-yl]-5-oxo-6,7-dihydro-5H-5λ^4-thieno[3,2-d]pyrimidin-4-ylamino}-1-methylpiperidin-2-one] | 96
11 | Cn1nc(C2CCN(c3nc4c(c(NC5CCOCC5)n3)[S+]([O-])CC4)CC2)cc1-c1ccco1 (stereo not drawn) [Example 198, {2-[4-(5-furan-2-yl-1-methyl-1H-pyrazol-3-yl)-piperidin-1-yl]-5-oxo-6,7-dihydro-5H-5λ^4-thieno[3,2-d]pyrimidin-4-yl}-(tetrahydropyran-4-yl)-amine] | 94
12 | CN1C[C@@H](Nc2nc(N3CCC(Oc4ccc(C5=NCCO5)cc4)CC3)nc3c2[S+]([O-])CC3)CCC1=O (stereo partly drawn) [Example 199] | 96
13 | Cn1nc(-c2ccco2)cc1C1CCN(c2nc3c(c(NC4CCOCC4)n2)[S+]([O-])CC3)CC1 (stereo not drawn) [Example 200, {2-[4-(5-furan-2-yl-2-methyl-2H-pyrazol-3-yl)-piperidin-1-yl]-5-oxo-6,7-dihydro-5H-5λ^4-thieno[3,2-d]pyrimidin-4-yl}-(tetrahydropyran-4-yl)-amine] | 97
14 | CCCN1C[C@@H](Nc2nc(N3CCC(c4ccc(Cl)cc4)CC3)nc3c2[S+]([O-])CC3)CCC1=O (stereo partly drawn) [Example 201, 5-{2-[4-(4-chlorophenyl)-piperidin-1-yl]-5-oxo-6,7-dihydro-5H-5λ^4-thieno[3,2-d]pyrimidin-4-ylamino}-1-propylpiperidin-2-one] | 95
15 | COCC(=O)NCC1(c2ccccc2)CCN(c2nc3c(c(N[C@H]4CCC(=O)N(C)C4)n2)[S+]([O-])CC3)CC1 (stereo partly drawn) [Example 202, 2-methoxy-N-{1-[4-(1-methyl-6-oxopiperidin-3-ylamino)-5-oxo-6,7-dihydro-5H-5λ^4-thieno[3,2-d]pyrimidin-2-yl]-4-phenylpiperidin-4-ylmethyl}-acetamide] | 96
16 | CN1C[C@@H](Nc2nc(N3CCC(C(=O)c4ccc(F)cc4)(c4ccc(F)cc4)CC3)nc3c2[S+]([O-])CC3)CCC1=O (stereo partly drawn) [Example 203, 5-{2-[4-(4-fluorobenzoyl)-4-(4-fluorophenyl)-piperidin-1-yl]-5-oxo-6,7-dihydro-5H-5λ^4-thieno[3,2-d]pyrimidin-4-ylamino}-1-methylpiperidin-2-one] | 96
17 | CC(=O)NCC1(c2ccccc2)CCN(c2nc3c(c(N[C@H]4CCC(=O)N(C)C4)n2)[S+]([O-])CC3)CC1 (stereo partly drawn) [Example 204, N-{1-[4-(1-methyl-6-oxopiperidin-3-ylamino)-5-oxo-6,7-dihydro-5H-5λ^4-thieno[3,2-d]pyrimidin-2-yl]-4-phenylpiperidin-4-ylmethyl}-acetamide] | 96
18 | COC(=O)C1(c2ccccc2)CCN(c2nc3c(c(N[C@H]4CCC(=O)N(C)C4)n2)[S+]([O-])CC3)CC1 (stereo partly drawn) [Example 205, methyl 1-[4-(1-methyl-6-oxopiperidin-3-ylamino)-5-oxo-6,7-dihydro-5H-5λ^4-thieno[3,2-d]pyrimidin-2-yl]-4-phenylpiperidine-4-carboxylate] | 96
19 | CN(C)CC(=O)NCC1(c2ccccc2)CCN(c2nc3c(c(N[C@H]4CCC(=O)N(C)C4)n2)[S+]([O-])CC3)CC1 (stereo partly drawn) [Example 206, 2-dimethylamino-N-{1-[4-(1-methyl-6-oxopiperidin-3-ylamino)-5-oxo-6,7-dihydro-5H-5λ^4-thieno[3,2-d]pyrimidin-2-yl]-4-phenylpiperidin-4-ylmethyl}-acetamide] | 95
20 | [O-][S+]1CCc2nc(N3CCC(c4nc5cccnc5[nH]4)CC3)nc(NC3CCOCC3)c21 (stereo not drawn) [Example 207] | 95
21 | [O-][S+]1CCc2nc(N3CCC(c4nc5ncncc5[nH]4)CC3)nc(NC3CCOCC3)c21 (stereo not drawn) [Example 208] | 82

Row | Compound | inhibition at 1 µM [%]
22 | [O-][S+]1CCc2nc(N3CCC(c4nc5cc(F)ccc5[nH]4)CC3)nc(NC3CCOCC3)c21 (stereo not drawn) [Example 209] | 95
23 | Cn1c(C2CCN(c3nc4c(c(NC5CCOCC5)n3)[S+]([O-])CC4)CC2)nc2cnccc21 (stereo not drawn) [Example 210, {2-[4-(1-methyl-1H-imidazo[4,5-c]pyridin-2-yl)-piperidin-1-yl]-5-oxo-6,7-dihydro-5H-5λ^4-thieno[3,2-d]pyrimidin-4-yl}-(tetrahydropyran-4-yl)-amine] | 85
24 | Cn1c(C2CCN(c3nc4c(c(NC5CCOCC5)n3)[S+]([O-])CC4)CC2)nc2ccccc21 (stereo not drawn) [Example 212] | 93
25 | [O-][S+]1CCc2nc(N3CCC(c4nc5ccncc5[nH]4)CC3)nc(NC3CCOCC3)c21 (stereo not drawn) [Example 213] | 88
26 | O=C(C1CC1)N1CCc2ccc(OC3CCN(c4nc5c(c(NC6CCOCC6)n4)[S+]([O-])CC5)CC3)cc2CC1 (stereo not drawn) [Example 214, cyclopropyl-(7-{1-[5-oxo-4-(tetrahydropyran-4-ylamino)-6,7-dihydro-5H-5λ^4-thieno[3,2-d]pyrimidin-2-yl]-piperidin-4-yloxy}-1,2,4,5-tetrahydrobenzo[d]azepin-3-yl)-methanone] | 94
27 | CC(C)C(=O)N1CCc2ccc(OC3CCN(c4nc5c(c(NC6CCOCC6)n4)[S+]([O-])CC5)CC3)cc2CC1 (stereo not drawn) [Example 215] | 79
28 | COCC(=O)NCC1(c2ccccc2)CCN(c2nc3c(c(NC4(CO)CC4)n2)[S+]([O-])CC3)CC1 (stereo not drawn) [Example 216] | 80
29 | COCC(=O)NCC1(c2ccccc2)CCN(c2nc3c(c(NC4CCOCC4)n2)[S+]([O-])CC3)CC1 (stereo not drawn) [Example 217] | 88
30 | Cc1nn(C)cc1C(C)NC(=O)c1ccc(C2CCN(c3nc4c(c(NC5CCOCC5)n3)[S+]([O-])CC4)CC2)cc1 (stereo not drawn) [Example 218] | 94
31 | CN1C[C@@H](Nc2nc(N3CCC(c4n[nH]c5ccccc45)CC3)nc3c2[S+]([O-])CC3)CCC1=O (stereo partly drawn) [Example 219] | 82
32 | [O-][S+]1CCc2nc(N3CCC(c4n[nH]c5ccccc45)CC3)nc(NC3(CO)CC3)c21 (stereo not drawn) [Example 220] | 93
33 | [O-][S+]1CCc2nc(N3CCC(c4n[nH]c5ccccc45)CC3)nc(NC3CCOCC3)c21 (stereo not drawn) [Example 221] | 94
34 | CC(C)(C)OC(=O)N[C@@H]1CC1Nc1nc(N2CCC(c3ccc(Cl)cc3)CC2)nc2c1[S+]([O-])CC2 (stereo partly drawn) [Example 222, tert-butyl (2-{2-[4-(4-chlorophenyl)-piperidin-1-yl]-5-oxo-6,7-dihydro-5H-5λ^4-thieno[3,2-d]pyrimidin-4-ylamino}-cyclopropyl)-carbamidate] | 89
35 | CC(C)(NC(=O)c1ccc(C2CCN(c3nc4c(c(NC5CCOCC5)n3)[S+]([O-])CC4)CC2)cc1)c1ccncc1 (stereo not drawn) [Example 223] | 80
36 | CN(C(=O)c1ccc(C2CCN(c3nc4c(c(NC5CCOCC5)n3)[S+]([O-])CC4)CC2)cc1)C1CCOCC1 (stereo not drawn) [Example 224] | 93
37 | O=C(c1ccc(C2CCN(c3nc4c(c(NC5CCOCC5)n3)[S+]([O-])CC4)CC2)cc1)N(C1CCOCC1)C1CC1 (stereo not drawn) [Example 225] | 89
38 | Cc1cn(C)nc1CN(C)C(=O)c1ccc(C2CCN(c3nc4c(c(NC5CCOCC5)n3)[S+]([O-])CC4)CC2)cc1 (stereo not drawn) [Example 226] | 95
39 | O=C(c1ccc(C2CCN(c3nc4c(c(NC5CCOCC5)n3)[S+]([O-])CC4)CC2)cc1)N1CCOCC1 (stereo not drawn) [Example 227] | 83
40 | CN1CCC(N(C)C(=O)c2ccc(C3CCN(c4nc5c(c(NC6CCOCC6)n4)[S+]([O-])CC5)CC3)cc2)CC1 (stereo not drawn) [Example 228] | 94
41 | CN(C(=O)c1ccc(C2CCN(c3nc4c(c(NC5CCOCC5)n3)[S+]([O-])CC4)CC2)cc1)C1CC1 (stereo not drawn) [Example 229, N-cyclopropyl-N-methyl-4-{1-[5-oxo-4-(tetrahydropyran-4-ylamino)-6,7-dihydro-5H-5λ^4-thieno[3,2-d]pyrimidin-2-yl]-piperidin-4-yl}-benzamide] | 94
42 | Cc1nn(C)c(C)c1CNC(=O)c1ccc(C2CCN(c3nc4c(c(NC5CCOCC5)n3)[S+]([O-])CC4)CC2)cc1 (stereo not drawn) [Example 230] | 81
